Each structure is given as a SMILES string.

Assay [1] concerns Plasmodium falciparum. Put plainly: Antimalarial activity against Plasmodium falciparum 3D7 infected in RBC cells assessed as inhibition of parasite growth incubated for 48 hrs by [3H]hypoxanthine incorporation assay. The class given is functional, organism-based.
Assay [2] deals with T1, IMP-specific 5'-nucleotidase 1 (Plasmodium falciparum (isolate 3D7)) (UniProt A0A144A134).
T1 sequence (whole entry): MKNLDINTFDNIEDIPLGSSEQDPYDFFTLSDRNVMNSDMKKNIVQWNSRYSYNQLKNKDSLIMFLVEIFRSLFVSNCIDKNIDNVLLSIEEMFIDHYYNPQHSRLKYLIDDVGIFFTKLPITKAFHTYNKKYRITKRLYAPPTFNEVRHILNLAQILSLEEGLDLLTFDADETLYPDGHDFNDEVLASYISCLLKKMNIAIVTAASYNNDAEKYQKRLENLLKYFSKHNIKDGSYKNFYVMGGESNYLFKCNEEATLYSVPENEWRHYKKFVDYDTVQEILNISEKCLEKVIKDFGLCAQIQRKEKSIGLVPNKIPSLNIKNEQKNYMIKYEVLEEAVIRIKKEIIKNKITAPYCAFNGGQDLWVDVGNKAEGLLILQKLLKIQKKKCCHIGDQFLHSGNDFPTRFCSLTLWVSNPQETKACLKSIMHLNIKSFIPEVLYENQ
Put plainly: Binding affinity to recombinant Plasmodium falciparum 3D7 ISN1 assessed as change in melting temperature at 10 uM by differential scanning fluorimetry method.

The target of assay [3] is T2, IMP-specific 5'-nucleotidase 1 (Plasmodium falciparum (isolate 3D7), UniProt A0A144A134).
T2 sequence (A0A144A134 whole entry): T1 sequence (whole entry)
Description: Binding affinity to recombinant Plasmodium falciparum 3D7 ISN1 assessed as dissociation constant by thermophoresis analysis.

Assay [4] has as its target T1, IMP-specific 5'-nucleotidase 1 (Plasmodium falciparum (isolate 3D7)). Put plainly: Binding affinity to recombinant Plasmodium falciparum 3D7 ISN1 assessed as change in melting temperature at 100 uM by differential scanning fluorimetry method.
The target is the same in assay [5]. Description: Binding affinity to recombinant Plasmodium falciparum 3D7 ISN1 assessed as change in melting temperature at 1 uM by differential scanning fluorimetry method.
The mark [6] stands for this setting: Plasmodium falciparum, 3D7, Erythrocyte.

Regarding `Nc1nc2c(ncn2[C@H]2CC[C@](O)(CP(=O)(O)O)C2)c(=O)[nH]1`, in assay [1] (setting [6]), the IC50 was 42 µM.
For the compound `Nc1nc2c(ncn2[C@@H]2CC[C@](O)(CP(=O)(O)O)C2)c(=O)[nH]1`, the IC50 in assay [1] (setting [6]) was 1.3 µM.
With `Nc1nc2c(ncn2[C@@H]2CC[C@@](O)(CP(=O)(O)O)C2)c(=O)[nH]1`, in assay [1] (setting [6]), the IC50 is greater than 100 µM.
Consider `Nc1nc2c(ncn2[C@H]2CC[C@@](O)(CP(=O)(O)O)C2)c(=O)[nH]1`, for which the 50% inhibitory concentration (IC50) in assay [1] (rbc) was 44 µM.
`Nc1ncnc2c1ncn2[C@H]1CC[C@@](O)(CP(=O)(O)O)C1`: the IC50 in assay [1] (setting [6]) amounted to 14.7 µM.
On the same count and under the same terms, then `COC1NC(N)=Nc2c1ncn2[C@H]1CC[C@@](O)(CCP(=O)(O)O)C1` (mixture of isomers), with 10.2 µM.
In the case of `Nc1nc2c(ncn2[C@H]2C=C[C@@](O)(CP(=O)(O)O)C2)c(=O)[nH]1` (racemic), the ΔTm in assay [2] was 1.1 °C; in assay [4], 4.1 °C; in assay [5], -0.9 °C. Also, the 50% inhibitory concentration (IC50) in assay [1] (setting [6]) amounted to 1 µM. Moreover, in assay [3], the equilibrium dissociation constant (Kd) came to 19.5 µM.
Take `Nc1nc2c(ncn2[C@@H]2CC(CP(=O)(O)O)=C[C@H]2O)c(=O)[nH]1` (racemic): in assay [1] (setting [6]), the half-inhibitory concentration (IC50) was greater than 100 µM.
The same measure, in the same setting: then `O=P(O)(O)C[C@]1(O)CC[C@H](n2cnc3c(NCc4ccccc4)nc(Cl)nc32)C1` (racemic), with 68.3 µM; and `Nc1nc2c(ncn2[C@H]2CC[C@@](O)(/C=C/P(=O)(O)O)C2)c(=O)[nH]1` (racemic), with 50 µM; and `Nc1nc2c(ncn2[C@H]2CC[C@@](O)(CCP(=O)(O)O)C2)c(=O)[nH]1` (racemic), with 7 µM.
Turning to `O=P(O)(O)C[C@]1(O)CC[C@H](n2cnc3c(NCc4ccccc4)nc(NCc4ccccc4)nc32)C1` (racemic), the IC50 in assay [1] (setting [6]) was found to be 41 µM.
Same read-out and setting: then `Nc1ncnc2c1ncn2[C@@H]1CC(CP(=O)(O)O)=C[C@H]1O` (racemic), with greater than 100 µM.
Turning to `Nc1nc2c(ncn2[C@H]2CC[C@@](O)(CP(=O)(O)O)C2)c(=O)[nH]1` (racemic) [listing 1 of 2 here], in assay [1] (rbc), the half-maximal inhibitory concentration (IC50) was 4.4 µM. Besides, the Kd in assay [3] was 24.1 µM.
In the case of `Nc1nc(N)c2ncn([C@H]3CC[C@@](O)(CP(=O)(O)O)C3)c2n1` (racemic), the concentration for half-maximal inhibition (IC50) in assay [1] (setting [6]) was 8.8 µM.
In the case of `COc1nc(N)c2ncn([C@H]3CC[C@@](O)(CP(=O)(O)O)C3)c2n1` (racemic), in assay [1] (setting [6]), the IC50 was determined as 2.2 µM.
On to `COc1nc(Cl)nc2c1ncn2[C@H]1CC[C@@](O)(CP(=O)(O)O)C1` (racemic), for which the half-maximal inhibitory concentration (IC50) in assay [1] (setting [6]) was greater than 100 µM.
In the case of `Nc1ncnc2c1ncn2[C@H]1CC[C@@](O)(/C=C/P(=O)(O)O)C1` (racemic), the half-inhibitory concentration (IC50) in assay [1] (setting [6]) is greater than 100 µM.
With `Nc1nc(NCc2ccccc2)c2ncn([C@H]3CC[C@@](O)(CP(=O)(O)O)C3)c2n1` (racemic), in assay [1] (setting [6]), the IC50 turned out to be 79 µM.
On to `Nc1nc2c(ncn2[C@H]2CC[C@@](O)(CP(=O)(O)O)C2)c(=O)[nH]1` (racemic) [listing 2 of 2 here], for which the ΔTm is -4.5 °C in assay [2], -5.2 °C in assay [4] and -2 °C in assay [5].

The values are drawn from ChEMBL document CHEMBL5625168, “Purine containing carbonucleoside phosphonate analogues as novel chemotype for Plasmodium falciparum Inhibition” (Eur J Med Chem, 2023).
